The source made the active and inactive calls.
How the values were obtained:
[1] = biological target: DNA (cytosine-5)-methyltransferase 1 (Homo sapiens, UniProt P26358); test: DNMT1 methyltransferase inhibitors, confirmation, biochemical, fluorescent molecular beacon (AID 602386); type: functional
[2] = biological target: T1, Small ubiquitin-related modifier 1 (Homo sapiens, UniProt P63165); test: inhibitors of SUMO1 partner interactions, dose response, biochemical, FRET (AID 624383); type: functional; conditions: read-out: IC50_Mean
Prothrombin = Prothrombin (Bos taurus, UniProt P00735); test: thrombin inhibition, dose response, biochemical, fluorescence polarization, uHTS hits (AID 602369); type: functional
SUMO-activating enzyme [3] = biological target: T2, SUMO-activating enzyme (Homo sapiens, UniProt Q9UBT2); test: SUMOylation inhibitor hit validation, confirmation, SUMOylation inhibitor project, biochemical, AlphaScreen (AID 2018); type: functional
Genome polyprotein = Genome polyprotein (Hepatitis C virus, UniProt Q2Q167); test: HCV core protein dimerization inhibitors, dose response, biochemical, TR-FRET (AID 2159); design: species or system Hepacivirus hominis;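 also: blocks dimerization of HCV core protein measured by TR-FRET between tagged core106 pairs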
[4] = biological target: 26S proteasome non-ATPase regulatory subunit 14 (Homo sapiens, UniProt O00487); test: inhibition of proteasome subunit RPN11 – biochemical, fluorescence polarization, uHTS hits, confirmation (AID 602368); type: functional
[5] = biological target: T3, Carboxy-terminal domain RNA polymerase II polypeptide A small phosphatase 1 (Homo sapiens, UniProt Q9GZU7); test: inhibitors of CTDSP1, concentration-response testing, biochemical assay, absorbance-based, actives from ultra-high-throughput screening (AID 540297); type: functional
T3 sequence (Q9GZU7 whole entry): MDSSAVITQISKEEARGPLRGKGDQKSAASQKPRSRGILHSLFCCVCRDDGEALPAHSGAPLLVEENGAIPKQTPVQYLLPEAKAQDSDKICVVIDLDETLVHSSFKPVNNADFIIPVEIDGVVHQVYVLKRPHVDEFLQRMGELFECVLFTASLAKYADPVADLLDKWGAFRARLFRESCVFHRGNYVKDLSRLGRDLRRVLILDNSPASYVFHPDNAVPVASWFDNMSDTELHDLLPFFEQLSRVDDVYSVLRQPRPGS

[6] = biological target: 72 kDa type IV collagenase (Homo sapiens, UniProt P08253); test: Dose Response validation of uHTS RPN11 inhibitor hits using a MMP-2 Fluorescence assay.; type: functional
[7] = biological target: T1, Small ubiquitin-related modifier 1; test: inhibitors of SUMO1 peptide binding, dose response, biochemical, fluorescence polarization, uHTS hits (AID 624382); type: functional; conditions: read-out: IC50_Mean
SUMO-activating enzyme [8] = biological target: T2, SUMO-activating enzyme; test: inhibitors of in vitro SUMOylation cascade, primary screen, biochemical, HTRF, uHTS (AID 2006); type: protein-complex assay
[9] = biological target: T4, Tyrosine-protein phosphatase non-receptor type 22 (Homo sapiens, UniProt Q9Y2R2); type: functional
T4 sequence (Q9Y2R2 whole entry): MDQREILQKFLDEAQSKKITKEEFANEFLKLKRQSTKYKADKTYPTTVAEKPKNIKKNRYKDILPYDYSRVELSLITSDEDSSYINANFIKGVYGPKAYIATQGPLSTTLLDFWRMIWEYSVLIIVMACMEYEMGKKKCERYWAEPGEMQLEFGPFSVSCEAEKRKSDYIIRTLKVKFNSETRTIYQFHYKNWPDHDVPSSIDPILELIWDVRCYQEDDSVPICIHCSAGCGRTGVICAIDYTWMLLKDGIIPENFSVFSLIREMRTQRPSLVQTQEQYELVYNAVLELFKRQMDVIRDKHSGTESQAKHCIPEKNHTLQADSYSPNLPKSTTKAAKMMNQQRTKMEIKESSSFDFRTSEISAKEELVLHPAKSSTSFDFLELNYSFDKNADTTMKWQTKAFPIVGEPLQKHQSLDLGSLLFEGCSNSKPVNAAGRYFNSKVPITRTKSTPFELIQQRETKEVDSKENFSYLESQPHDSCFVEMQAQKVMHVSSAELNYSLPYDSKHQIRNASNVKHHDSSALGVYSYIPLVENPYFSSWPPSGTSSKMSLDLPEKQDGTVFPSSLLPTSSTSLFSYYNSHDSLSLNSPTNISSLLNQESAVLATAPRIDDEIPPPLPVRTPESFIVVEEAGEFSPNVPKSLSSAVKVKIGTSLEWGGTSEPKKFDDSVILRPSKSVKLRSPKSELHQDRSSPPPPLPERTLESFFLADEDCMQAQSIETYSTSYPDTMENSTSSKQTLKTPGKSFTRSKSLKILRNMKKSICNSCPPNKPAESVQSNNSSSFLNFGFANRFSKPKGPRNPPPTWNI

[10] = cytotoxicity toward NIH3T3 fibroblasts, dose response, counter-screen, cell-based, ATP luminescence, mouse fibroblasts (AID 2010); type: functional;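 also: cells exposed to compound for about 90 hours before reading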
[11] = inhibitors of intracellular T. cruzi replication, confirmation, NIH3T3 host cells, beta-gal luminescence (AID 2044); type: functional, cell-based;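 also: intracellular parasites grown in NIH/3T3 mouse fibroblasts as host cells; luminescent beta-galactosidase reporter signal from transgenic T. cruzi replicating inside host cells; inhibitors lower the luminescence signal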
[12] = biological target: T5, Tyrosine-protein phosphatase non-receptor type 7 (Homo sapiens, UniProt P35236); type: functional
T5 sequence (P35236 whole entry): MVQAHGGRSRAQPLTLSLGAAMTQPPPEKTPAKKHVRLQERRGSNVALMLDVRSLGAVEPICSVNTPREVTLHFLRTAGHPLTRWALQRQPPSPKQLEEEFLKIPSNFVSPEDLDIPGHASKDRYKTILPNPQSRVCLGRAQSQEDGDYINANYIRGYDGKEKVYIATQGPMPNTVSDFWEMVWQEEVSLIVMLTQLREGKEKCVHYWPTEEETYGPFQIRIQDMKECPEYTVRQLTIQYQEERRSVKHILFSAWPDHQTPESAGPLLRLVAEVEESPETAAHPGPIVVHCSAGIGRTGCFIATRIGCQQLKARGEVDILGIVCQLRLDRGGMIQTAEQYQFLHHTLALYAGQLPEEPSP

[13] = biological target: T4, Tyrosine-protein phosphatase non-receptor type 22; type: functional; remark: listed apart in the source
[14] = Luminescence Cell-Based Dose Retest to Confirm Inhibitors of Cancer Stem Cells. [Related pubchem assays (depositor defined):AID2717, AID2721]; type: functional; conditions: Homo sapiens
[15] = biological target: T6, G-protein coupled receptor 55 (Homo sapiens, UniProt Q9Y2T6); test: SAR analysis of selective Agonists of GPR55 using an Image-Based Assay. [Related pubchem assays (depositor defined):AID1961, AID1965]; type: functional
BJ [16] = test: cytotoxicity toward BJ-TERT-LT-ST fibroblasts, dose response, cell-based, RAS-independent, luminescence (AID 1935); type: functional; conditions: Homo sapiens;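 also: BJ fibroblasts immortalized with TERT plus LT and ST oncogenes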
BJ [17] = test: cells; type: functional, cell-based; conditions: Homo sapiens
[18] = cytotoxicity toward DRD oncogenic fibroblasts, dose response, cell-based, non-viral oncogenic, luminescence (AID 1934); type: functional; conditions: Homo sapiens
Cannabinoid receptor 2 [19] = biological target: T7, Cannabinoid receptor 2 (Homo sapiens, UniProt P34972); test: SAR analysis of antagonists of the Cannabinoid Receptor 2 using an Image-Based Assay - Set 2. [Related pubchem assays (depositor defined):AID1961, AID1965]; type: functional
Cannabinoid receptor 2 [20] = biological target: T7, Cannabinoid receptor 2; test: SAR analysis of agonists of the Cannabinoid Receptor 2 using an Image-Based Assay - Set 2. [Related pubchem assays (depositor defined):AID1961, AID1965]; type: functional
BJ [21] = test: cytotoxicity toward BJ-TERT fibroblasts, dose response, cell-based, RAS-independent, luminescence (AID 1933); type: functional; conditions: Homo sapiens
[22] = biological target: T6, G-protein coupled receptor 55; test: GPR55 agonists via beta-arrestin recruitment, primary screen, imaging, U2OS cells, beta-arrestin-GFP redistribution (AID 1961); type: functional
Cannabinoid receptor 1 = Cannabinoid receptor 1 (Homo sapiens, UniProt P21554); test: SAR analysis of antagonists of the Cannabinoid Receptor 1 using an Image-Based Assay. [Related pubchem assays (depositor defined):AID1961, AID1965]; type: functional
[23] = biological target: T8, Alkaline phosphatase, tissue-nonspecific isozyme (Homo sapiens, UniProt P05186); test: TNAP enzyme activators, dose response, selectivity assay for mouse IAP activator project, biochemical, TNAP isozyme, mouse IAP uHTS hits (AID 488880); type: functional
T8 sequence (P05186 whole entry): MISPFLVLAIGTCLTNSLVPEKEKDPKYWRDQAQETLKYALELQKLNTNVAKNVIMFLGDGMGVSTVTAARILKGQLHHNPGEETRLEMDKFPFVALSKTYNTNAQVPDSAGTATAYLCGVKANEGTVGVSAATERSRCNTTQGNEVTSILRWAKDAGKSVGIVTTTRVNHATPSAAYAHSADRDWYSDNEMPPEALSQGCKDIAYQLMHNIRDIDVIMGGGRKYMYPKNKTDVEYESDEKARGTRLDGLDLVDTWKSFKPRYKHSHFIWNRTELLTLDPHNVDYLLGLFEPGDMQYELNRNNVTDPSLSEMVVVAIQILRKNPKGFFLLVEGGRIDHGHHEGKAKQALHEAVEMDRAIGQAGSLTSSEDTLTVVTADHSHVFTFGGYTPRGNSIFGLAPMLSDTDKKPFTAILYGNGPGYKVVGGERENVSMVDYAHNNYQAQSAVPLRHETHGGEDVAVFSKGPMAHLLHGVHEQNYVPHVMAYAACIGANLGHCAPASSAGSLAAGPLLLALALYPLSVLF

[24] = biological target: Intestinal-type alkaline phosphatase (Homo sapiens, UniProt P09923); test: activation of human intestinal alkaline phosphatase – biochemical, dose response (AID 488873); type: functional
[25] = biological target: Intestinal-type alkaline phosphatase (Mus musculus, UniProt P24822); test: mouse intestinal alkaline phosphatase activators, dose response, biochemical, luminescence, uHTS hits (AID 488783); type: functional
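For AC50 in this document: cells exposed to compound for roughly 70 hours or longer before luminescence read.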

T7 sequence (P34972 whole entry): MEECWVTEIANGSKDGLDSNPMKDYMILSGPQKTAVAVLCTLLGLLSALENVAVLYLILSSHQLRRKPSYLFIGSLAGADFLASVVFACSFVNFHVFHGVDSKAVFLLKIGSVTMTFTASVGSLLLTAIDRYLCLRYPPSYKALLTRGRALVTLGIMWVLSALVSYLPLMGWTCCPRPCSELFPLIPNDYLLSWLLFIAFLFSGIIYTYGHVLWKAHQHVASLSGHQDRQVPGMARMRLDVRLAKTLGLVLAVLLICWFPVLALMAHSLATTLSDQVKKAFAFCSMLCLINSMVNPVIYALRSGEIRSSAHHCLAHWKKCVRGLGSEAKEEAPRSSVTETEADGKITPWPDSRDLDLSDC
T1 sequence (P63165 whole entry): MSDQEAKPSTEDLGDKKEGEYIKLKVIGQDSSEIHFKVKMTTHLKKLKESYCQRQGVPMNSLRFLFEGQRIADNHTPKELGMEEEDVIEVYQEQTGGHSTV
T2 sequence (Q9UBE0 whole entry): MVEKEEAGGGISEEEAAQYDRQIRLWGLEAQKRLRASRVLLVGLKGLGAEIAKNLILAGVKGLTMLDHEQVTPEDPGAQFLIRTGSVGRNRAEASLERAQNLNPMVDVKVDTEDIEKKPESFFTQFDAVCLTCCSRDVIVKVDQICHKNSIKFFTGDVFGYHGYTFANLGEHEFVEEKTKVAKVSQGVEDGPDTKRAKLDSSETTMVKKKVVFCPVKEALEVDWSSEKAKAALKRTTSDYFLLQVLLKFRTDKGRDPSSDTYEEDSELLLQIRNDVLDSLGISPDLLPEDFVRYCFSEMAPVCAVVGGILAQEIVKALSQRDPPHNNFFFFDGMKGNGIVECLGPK
T2 sequence (Q9UBT2 whole entry): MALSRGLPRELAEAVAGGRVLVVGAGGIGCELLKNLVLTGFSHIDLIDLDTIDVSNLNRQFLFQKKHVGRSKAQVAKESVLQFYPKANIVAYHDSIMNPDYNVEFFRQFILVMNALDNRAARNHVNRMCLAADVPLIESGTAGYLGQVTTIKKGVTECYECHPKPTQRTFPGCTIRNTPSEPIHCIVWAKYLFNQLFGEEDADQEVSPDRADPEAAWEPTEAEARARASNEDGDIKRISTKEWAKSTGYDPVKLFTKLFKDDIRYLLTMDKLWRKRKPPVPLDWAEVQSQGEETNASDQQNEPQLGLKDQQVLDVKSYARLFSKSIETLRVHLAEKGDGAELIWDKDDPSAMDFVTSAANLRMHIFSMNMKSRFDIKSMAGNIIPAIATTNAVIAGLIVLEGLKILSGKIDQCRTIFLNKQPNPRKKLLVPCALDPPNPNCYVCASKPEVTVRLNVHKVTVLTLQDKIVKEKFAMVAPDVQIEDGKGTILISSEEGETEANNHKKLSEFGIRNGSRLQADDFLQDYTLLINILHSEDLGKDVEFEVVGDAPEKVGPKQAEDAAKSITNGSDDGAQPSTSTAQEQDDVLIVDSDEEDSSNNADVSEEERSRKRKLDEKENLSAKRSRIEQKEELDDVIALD
T6 sequence (Q9Y2T6 whole entry): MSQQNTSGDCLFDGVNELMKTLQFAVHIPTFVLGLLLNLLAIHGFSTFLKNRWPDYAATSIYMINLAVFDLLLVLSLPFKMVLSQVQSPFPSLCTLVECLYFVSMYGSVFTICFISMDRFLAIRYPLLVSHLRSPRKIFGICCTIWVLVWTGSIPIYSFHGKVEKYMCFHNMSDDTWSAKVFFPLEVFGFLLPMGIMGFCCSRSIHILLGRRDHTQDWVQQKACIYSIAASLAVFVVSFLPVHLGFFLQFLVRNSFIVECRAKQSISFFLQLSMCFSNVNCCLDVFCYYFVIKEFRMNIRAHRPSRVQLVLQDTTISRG
Chain of Intestinal-type alkaline phosphatase (Homo sapiens, UniProt P09923) (P09923 whole entry): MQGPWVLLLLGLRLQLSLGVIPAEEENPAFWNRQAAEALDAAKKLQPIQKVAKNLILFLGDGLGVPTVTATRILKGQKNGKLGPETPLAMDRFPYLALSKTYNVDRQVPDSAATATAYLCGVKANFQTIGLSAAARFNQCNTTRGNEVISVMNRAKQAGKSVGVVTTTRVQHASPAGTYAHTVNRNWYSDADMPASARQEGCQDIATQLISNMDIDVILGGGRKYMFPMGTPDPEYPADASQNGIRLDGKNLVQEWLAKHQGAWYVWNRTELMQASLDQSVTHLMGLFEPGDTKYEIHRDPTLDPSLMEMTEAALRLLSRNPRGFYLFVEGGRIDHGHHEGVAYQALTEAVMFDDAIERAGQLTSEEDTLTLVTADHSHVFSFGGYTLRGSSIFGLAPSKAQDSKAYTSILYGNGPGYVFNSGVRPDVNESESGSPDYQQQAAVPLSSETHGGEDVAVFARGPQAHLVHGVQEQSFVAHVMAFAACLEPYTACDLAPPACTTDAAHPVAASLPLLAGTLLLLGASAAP
Chain of Intestinal-type alkaline phosphatase (Mus musculus, UniProt P24822) (P24822 whole entry): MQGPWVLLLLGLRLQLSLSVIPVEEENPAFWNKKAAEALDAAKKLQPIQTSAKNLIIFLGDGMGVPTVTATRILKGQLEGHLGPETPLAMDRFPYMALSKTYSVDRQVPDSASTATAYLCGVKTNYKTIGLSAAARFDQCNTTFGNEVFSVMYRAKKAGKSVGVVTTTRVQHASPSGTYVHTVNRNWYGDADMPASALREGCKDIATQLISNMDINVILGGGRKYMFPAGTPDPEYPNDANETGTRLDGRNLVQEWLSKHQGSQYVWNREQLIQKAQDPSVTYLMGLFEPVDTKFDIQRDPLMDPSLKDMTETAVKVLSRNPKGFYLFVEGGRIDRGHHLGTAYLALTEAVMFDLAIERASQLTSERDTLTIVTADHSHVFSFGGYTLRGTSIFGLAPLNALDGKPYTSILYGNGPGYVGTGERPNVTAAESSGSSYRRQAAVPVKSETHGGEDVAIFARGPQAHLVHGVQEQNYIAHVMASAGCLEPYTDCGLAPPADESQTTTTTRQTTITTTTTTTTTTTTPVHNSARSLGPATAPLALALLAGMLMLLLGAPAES
Chain of DNA (cytosine-5)-methyltransferase 1 (P26358 whole entry): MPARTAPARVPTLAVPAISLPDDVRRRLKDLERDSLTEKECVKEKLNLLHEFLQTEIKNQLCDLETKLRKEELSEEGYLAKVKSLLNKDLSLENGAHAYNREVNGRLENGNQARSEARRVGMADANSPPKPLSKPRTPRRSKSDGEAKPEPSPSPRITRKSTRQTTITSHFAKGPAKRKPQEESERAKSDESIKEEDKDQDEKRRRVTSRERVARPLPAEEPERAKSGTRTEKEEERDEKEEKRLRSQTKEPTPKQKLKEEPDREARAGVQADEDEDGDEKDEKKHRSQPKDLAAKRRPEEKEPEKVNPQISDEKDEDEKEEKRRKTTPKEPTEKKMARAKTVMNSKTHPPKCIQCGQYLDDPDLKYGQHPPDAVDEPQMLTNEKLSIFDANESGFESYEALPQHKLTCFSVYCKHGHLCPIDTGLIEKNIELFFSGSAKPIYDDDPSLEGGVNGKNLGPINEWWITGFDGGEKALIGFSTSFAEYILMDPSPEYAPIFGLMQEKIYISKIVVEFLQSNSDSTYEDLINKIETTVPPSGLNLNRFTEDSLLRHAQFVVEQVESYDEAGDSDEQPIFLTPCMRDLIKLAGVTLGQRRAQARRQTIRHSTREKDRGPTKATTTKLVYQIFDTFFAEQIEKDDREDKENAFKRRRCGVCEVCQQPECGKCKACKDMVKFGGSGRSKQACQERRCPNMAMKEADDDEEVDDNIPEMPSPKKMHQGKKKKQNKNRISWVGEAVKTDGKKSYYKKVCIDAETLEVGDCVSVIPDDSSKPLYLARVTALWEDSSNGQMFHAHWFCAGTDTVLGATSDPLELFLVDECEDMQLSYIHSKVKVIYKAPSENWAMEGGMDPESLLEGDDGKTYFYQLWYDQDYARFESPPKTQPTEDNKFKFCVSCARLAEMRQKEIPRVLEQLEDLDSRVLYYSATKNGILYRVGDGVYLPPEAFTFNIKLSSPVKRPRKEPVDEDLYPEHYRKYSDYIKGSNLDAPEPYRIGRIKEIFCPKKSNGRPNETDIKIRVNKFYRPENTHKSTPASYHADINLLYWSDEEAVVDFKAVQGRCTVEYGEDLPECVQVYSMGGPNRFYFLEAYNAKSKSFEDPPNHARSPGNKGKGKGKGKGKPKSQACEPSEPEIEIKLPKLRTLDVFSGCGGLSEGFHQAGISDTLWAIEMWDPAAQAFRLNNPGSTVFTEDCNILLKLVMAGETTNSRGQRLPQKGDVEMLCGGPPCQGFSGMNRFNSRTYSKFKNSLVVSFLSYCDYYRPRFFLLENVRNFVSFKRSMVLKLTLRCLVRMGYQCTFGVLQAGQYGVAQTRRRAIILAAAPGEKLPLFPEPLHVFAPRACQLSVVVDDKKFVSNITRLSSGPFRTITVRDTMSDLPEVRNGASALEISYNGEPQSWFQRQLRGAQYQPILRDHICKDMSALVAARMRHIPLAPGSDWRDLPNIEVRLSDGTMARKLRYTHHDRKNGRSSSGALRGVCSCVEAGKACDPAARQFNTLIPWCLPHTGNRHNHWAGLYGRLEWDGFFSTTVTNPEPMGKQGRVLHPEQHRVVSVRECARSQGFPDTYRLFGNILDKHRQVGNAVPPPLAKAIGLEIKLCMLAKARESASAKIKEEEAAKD
Chain of 26S proteasome non-ATPase regulatory subunit 14 (O00487 whole entry, the tested form may be a part): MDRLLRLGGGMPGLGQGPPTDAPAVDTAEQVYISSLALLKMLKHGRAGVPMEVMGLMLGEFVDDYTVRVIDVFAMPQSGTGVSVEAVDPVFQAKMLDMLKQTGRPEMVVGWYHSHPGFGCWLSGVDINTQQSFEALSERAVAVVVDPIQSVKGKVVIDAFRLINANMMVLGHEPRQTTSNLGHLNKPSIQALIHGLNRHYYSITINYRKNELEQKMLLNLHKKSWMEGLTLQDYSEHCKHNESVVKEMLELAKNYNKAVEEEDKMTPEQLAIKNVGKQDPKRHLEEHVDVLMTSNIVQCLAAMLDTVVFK
Chain of Genome polyprotein (Q2Q167 whole entry): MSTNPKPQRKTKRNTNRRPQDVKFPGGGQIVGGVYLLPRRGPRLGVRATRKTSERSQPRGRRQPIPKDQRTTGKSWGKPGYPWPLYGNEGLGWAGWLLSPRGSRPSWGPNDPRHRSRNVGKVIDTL

SMILES: COC(=O)c1c(NC(=O)COC(=O)c2ccc(NC(=O)CC#N)cc2)sc2c1CCCCC2
- IC50 [1]: 3.35 µM (active)
- IC50 [2]: 6.24 µM (active)
- IC50 (Prothrombin): 85.9 µM (active)
- IC50 (SUMO-activating enzyme [3]): 6.14 µM (active)
- IC50 (Genome polyprotein): > 49.8 µM (not active)
- IC50 [4]: 13.8 µM (active)
- IC50 [5]: 1.84 µM (active)
- IC50 [6]: > 100 µM (inactive)
- IC50 [7]: > 66.6 µM (inactive)
- IC50 (SUMO-activating enzyme [8]): 7.43 µM (active)

SMILES: CCC(C)NCCOCCOc1ccc(Cl)c(C)c1C (stereo not drawn)
- IC50 [9]: > 79.4 µM (inactive)
- EC50 [10]: 9.69 µM (active)
- EC50 [11]: 0.148 µM (active)
- IC50 [12]: > 79.4 µM (inactive)
- IC50 [13]: > 79.4 µM (inactive)

SMILES: Cc1occc1C(=O)Nc1ccc(OCc2ccccc2)cc1
- AC50 [14]: 5.34 µM (active)
- EC50 [15]: 0.544 µM (active)
- EC50 (BJ [16]): > 150 µM (inconclusive)
- EC50 (BJ [17]): 9.33 µM (active)
- EC50 [18]: 9.29 µM (active)
- IC50 (Cannabinoid receptor 2 [19]): > 32 µM (inactive)
- EC50 (Cannabinoid receptor 2 [20]): > 32 µM (inactive)
- EC50 (BJ [21]): 11.4 µM (active)
- EC50 [22]: 0.866 µM (active)
- IC50 (Cannabinoid receptor 1): > 32 µM (inactive)

SMILES: COc1ccc(NC(=O)CCNS(=O)(=O)c2ccc3[nH]c(=O)oc3c2)cc1Cl
- EC50 [23]: 39.6 µM (active)
- EC50 [24]: 42.8 µM (active)
- EC50 [25]: 20.5 µM (active)
